The values that follow come from patent US20230265151A1, “GIP/GLP1 CO-AGONIST COMPOUNDS” (priority 2020, published 2023).

Like-named read-outs stand apart in the source and are kept apart here. Bounds are passed on as bounds.

Holding throughout (type): cell-based
One test concerns the target T1, hGCGR (Homo sapiens, UniProt P47871).
T1 construct: expressed in transfected cells
The test can be described thus: Functional cAMP formation (HTRF) in HEK-293 clonal cells expressing hGCGR, 0.1% bovine casein, without or with 1.0% human serum albumin. The note with it: geometric mean, read-out: hGCGR EC50, nM (SEM, n). The method in brief:
(§1)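 Cells were stimulated with peptide for 30 min at 37° C, then lysed in buffer carrying cAMP-d2 and anti-cAMP Eu3+-cryptate for a competitive HTRF read after at least 60 min at room temperature. The 665/620 nm ratio was converted to nM cAMP against a standard curve.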
For orientation: Cyclic AMP is a second messenger, typically raised through Gs and lowered through Gi signalling.

The target of another test is T2, hGIPR (Homo sapiens, UniProt P48546).
T2 construct: expressed in transfected cells
T2 sequence (P48546 22-466): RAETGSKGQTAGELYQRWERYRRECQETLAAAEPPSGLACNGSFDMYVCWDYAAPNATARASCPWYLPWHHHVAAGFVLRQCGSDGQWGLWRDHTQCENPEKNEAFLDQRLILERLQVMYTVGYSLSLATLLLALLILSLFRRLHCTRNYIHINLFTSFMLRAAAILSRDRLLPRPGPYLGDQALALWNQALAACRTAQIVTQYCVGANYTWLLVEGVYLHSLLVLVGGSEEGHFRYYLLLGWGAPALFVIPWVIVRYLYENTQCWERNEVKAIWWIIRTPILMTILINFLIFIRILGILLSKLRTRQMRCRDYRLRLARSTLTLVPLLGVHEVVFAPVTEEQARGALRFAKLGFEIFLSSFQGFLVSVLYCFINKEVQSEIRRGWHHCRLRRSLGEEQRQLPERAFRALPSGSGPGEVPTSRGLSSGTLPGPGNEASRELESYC
The test can be described thus: Functional cAMP formation (HTRF) in HEK-293 clonal cells expressing hGIPR, 0.1% bovine casein, without or with 1.0% human serum albumin. The note with it: for EC50: geometric mean, read-out: hGIPR EC50, nM (SEM, n); for Emax: read-out: hGIPR Emax, % ± SEM. Put shortly:
as §1

For another test, the target named is hGLP-1R (Homo sapiens, UniProt P43220). Kind of test: Functional cAMP formation (HTRF) in HEK-293 clonal cells expressing hGLP-1R, 0.1% bovine casein, without or with 1.0% human serum albumin. Also on record: expressed in transfected cells. The note with it: for EC50: geometric mean, read-out: hGLP-1R EC50, nM (SEM, n); for Emax: read-out: hGLP-1R Emax, % ± SEM. The method in brief:
as §1

[1] abbreviates: 0.1% bovine casein and 1.0% human serum albumin, 37° C.
The mark [2] stands for this setting: cAMP, incubated at 37° C., 0.1% bovine casein (no human serum albumin).
Setting [3] is: HEK293, 0.1% bovine casein and 1.0% human serum albumin, 37° C., percent of maximal response to GIP(1-42)NH2.
The mark [4] stands for this setting: HEK293, percent of maximal response to GIP(1-42)NH2, 37° C., 0.1% bovine casein, arithmetic mean.
[5] abbreviates: HEK293, percent of maximal response to GLP-1(7-36)NH2, 37° C., 0.1% bovine casein, arithmetic mean.
[6] abbreviates: HEK293, 0.1% bovine casein and 1.0% human serum albumin, 37° C., percent of maximal response to GLP-1(7-36)NH2.

T1 sequence (P47871 26-477): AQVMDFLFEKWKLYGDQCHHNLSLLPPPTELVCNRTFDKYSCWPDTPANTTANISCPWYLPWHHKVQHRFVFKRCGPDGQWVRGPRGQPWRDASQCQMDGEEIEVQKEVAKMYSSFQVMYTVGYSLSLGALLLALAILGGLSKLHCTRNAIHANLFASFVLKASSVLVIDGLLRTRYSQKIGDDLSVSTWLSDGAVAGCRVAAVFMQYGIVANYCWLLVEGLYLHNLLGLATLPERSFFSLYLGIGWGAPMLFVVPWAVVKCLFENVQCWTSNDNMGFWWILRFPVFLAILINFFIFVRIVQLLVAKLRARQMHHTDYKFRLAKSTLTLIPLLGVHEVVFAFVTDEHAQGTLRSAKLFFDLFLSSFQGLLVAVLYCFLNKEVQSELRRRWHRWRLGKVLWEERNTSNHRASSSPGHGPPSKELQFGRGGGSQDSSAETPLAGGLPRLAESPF
Chain of hGLP-1R (P43220 24-463): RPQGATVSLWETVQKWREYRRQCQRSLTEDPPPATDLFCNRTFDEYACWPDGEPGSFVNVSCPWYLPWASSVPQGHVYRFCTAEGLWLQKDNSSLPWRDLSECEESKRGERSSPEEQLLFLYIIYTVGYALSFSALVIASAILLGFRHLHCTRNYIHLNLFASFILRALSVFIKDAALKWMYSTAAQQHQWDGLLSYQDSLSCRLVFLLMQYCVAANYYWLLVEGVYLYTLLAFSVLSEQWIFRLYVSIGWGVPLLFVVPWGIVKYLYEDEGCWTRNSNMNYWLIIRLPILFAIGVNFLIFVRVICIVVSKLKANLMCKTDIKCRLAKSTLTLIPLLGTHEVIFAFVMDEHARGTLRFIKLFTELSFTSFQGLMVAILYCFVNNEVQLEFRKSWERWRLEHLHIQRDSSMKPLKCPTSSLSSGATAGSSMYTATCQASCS

Consider `CC[C@H](C)[C@H](NC(=O)[C@H](CCCN)NC(=O)[C@H](CC(=O)O)NC(=O)[C@H](CC(C)C)NC(=O)[C@](C)(CC(C)C)NC(=O)[C@@H](NC(=O)[C@H](CO)NC(=O)[C@H](Cc1ccncc1)NC(=O)[C@H](CC(=O)O)NC(=O)[C@H](CO)NC(=O)[C@@H](NC(=O)[C@](C)(Cc1ccccc1F)NC(=O)[C@@H](NC(=O)CNC(=O)[C@H](CCC(=O)O)NC(=O)C(C)(C)NC(=O)[C@@H](N)Cc1ccc(O)cc1)[C@@H](C)O)[C@@H](C)O)[C@@H](C)CC)C(=O)N[C@@H](C)C(=O)N[C@@H](CCC(N)=O)C(=O)NC(C)(C)C(=O)N[C@@H](CCC(=O)O)C(=O)N[C@@H](Cc1ccccc1)C(=O)N[C@H](C(=O)N[C@@H](CCCCNC(=O)[C@@H](N)CCCCNC(=O)CC[C@H](NC(=O)CCCCCCCCCCCCC(=O)O)C(=O)O)C(=O)N[C@@](C)(Cc1ccc(O)cc1)C(=O)N[C@@H](CC(C)C)C(=O)N[C@H](C(=O)N[C@@H](CCC(=O)O)C(=O)NCC(=O)NCC(=O)N[C@@H](CCCCNC(=O)[C@@H](N)CCCCNC(=O)CC[C@H](NC(=O)CCCCCCCCCCCCC(=O)O)C(=O)O)C(=O)N[C@@H](CO)C(=O)N[C@@H](CO)C(=O)NCC(=O)N[C@@H](C)C(=O)N1CCC[C@H]1C(=O)N1CCC[C@H]1C(=O)N1CCC[C@H]1C(=O)N[C@@H](CO)C(N)=O)[C@@H](C)CC)[C@@H](C)CC` [Example 197], for which the EC50 is more than 9950 nM at hGCGR (setting [1]); more than 9950 nM on hGCGR (setting [2]); 2.06 nM on hGIPR (setting [1]); 0.0338 nM on hGIPR (setting [2]); 26.2 nM on hGLP-1R (setting [1]); 0.336 nM on hGLP-1R (setting [2]). Also, the Emax on hGIPR (setting [3]) was found to be 84.5 ± 4.08%.

As for `CC[C@H](C)[C@H](NC(=O)[C@H](CC(C)C)NC(=O)[C@](C)(Cc1ccc(O)cc1)NC(=O)[C@@H](CCC(=O)O)NC(=O)[C@@H](NC(=O)[C@H](Cc1ccccc1)NC(=O)[C@H](CCC(=O)O)NC(=O)C(C)(C)NC(=O)[C@H](CCC(N)=O)NC(=O)[C@H](C)NC(=O)[C@H](CCCCNC(=O)COCCOCCNC(=O)COCCOCCNC(=O)CC[C@H](NC(=O)CCCCCCCCCCCCC(=O)O)C(=O)O)NC(=O)[C@H](CCCN)NC(=O)[C@H](CC(=O)O)NC(=O)[C@H](CC(C)C)NC(=O)[C@](C)(CC(C)C)NC(=O)[C@@H](NC(=O)[C@H](CO)NC(=O)[C@](C)(Cc1ccccc1F)NC(=O)[C@H](CC(=O)O)NC(=O)[C@H](CO)NC(=O)[C@@H](NC(=O)[C@](C)(Cc1ccccc1F)NC(=O)[C@@H](NC(=O)CNC(=O)[C@H](CCC(=O)O)NC(=O)C(C)(C)NC(=O)[C@@H](N)Cc1ccc(O)cc1)[C@@H](C)O)[C@@H](C)O)[C@@H](C)CC)[C@@H](C)CC)C(=O)N[C@@H](CCC(=O)O)C(=O)NCC(=O)NCC(=O)N[C@@H](CCCCNC(=O)COCCOCCNC(=O)COCCOCCNC(=O)CC[C@H](NC(=O)CCCCCCCCCCCCC(=O)O)C(=O)O)C(=O)N[C@@H](CO)C(=O)N[C@@H](CO)C(=O)NCC(=O)N[C@@H](C)C(=O)N1CCC[C@H]1C(=O)N1CCC[C@H]1C(=O)N1CCC[C@H]1C(=O)N[C@@H](CO)C(N)=O` [Example 87], the EC50 on hGCGR (setting [1]) is more than 9950 nM; at hGCGR (setting [2]) it was more than 9950 nM; on hGIPR (setting [1]) it was 4.84 nM; at hGLP-1R (setting [2]), 1.34 nM. The Emax amounted to 89.2% at hGIPR (setting [3]) and 84.7% on hGIPR (setting [4]).

On to `CC[C@H](C)[C@H](NC(=O)[C@H](CC(C)C)NC(=O)[C@](C)(Cc1ccc(O)cc1)NC(=O)[C@@H](CCC(=O)O)NC(=O)[C@@H](NC(=O)[C@H](Cc1ccccc1)NC(=O)[C@H](CCC(=O)O)NC(=O)C(C)(C)NC(=O)[C@H](CCC(N)=O)NC(=O)[C@H](C)NC(=O)[C@H](CCCCNC(=O)COCCOCCNC(=O)COCCOCCNC(=O)[C@@H](N)CCCCNC(=O)CCCCCCCCCCCCC(=O)O)NC(=O)[C@H](CCCN)NC(=O)[C@H](CC(=O)O)NC(=O)[C@H](CC(C)C)NC(=O)[C@](C)(CC(C)C)NC(=O)[C@@H](NC(=O)C(C)(C)NC(=O)[C@@H](NC(=O)[C@H](CC(=O)O)NC(=O)[C@H](CO)NC(=O)[C@@H](NC(=O)[C@](C)(Cc1ccccc1F)NC(=O)[C@@H](NC(=O)CNC(=O)[C@H](CCC(=O)O)NC(=O)C(C)(C)NC(=O)[C@@H](N)Cc1ccc(O)cc1)[C@@H](C)O)[C@@H](C)O)C(C)C)[C@@H](C)CC)[C@@H](C)CC)C(=O)N[C@@H](CCC(=O)O)C(=O)NCC(=O)NCC(=O)N[C@@H](CCCCNC(=O)COCCOCCNC(=O)COCCOCCNC(=O)[C@@H](N)CCCCNC(=O)CCCCCCCCCCCCC(=O)O)C(=O)N[C@@H](CO)C(=O)N[C@@H](CO)C(=O)NCC(=O)N[C@@H](C)C(=O)N1CCC[C@H]1C(=O)N1CCC[C@H]1C(=O)N1CCC[C@H]1C(=O)N[C@@H](CO)C(N)=O` [Example 163], for which the EC50 at hGCGR (setting [2]) is more than 9950 nM; on hGIPR (setting [2]), 0.0427 nM; on hGLP-1R (setting [2]) it was 0.199 nM. The Emax stood at 98.2% on hGIPR (setting [4]) and 86.3% on hGLP-1R (setting [5]).

On to `CC[C@H](C)[C@H](NC(=O)[C@H](CC(C)C)NC(=O)[C@](C)(Cc1ccc(O)cc1)NC(=O)[C@@H](CCC(=O)O)NC(=O)[C@@H](NC(=O)[C@H](Cc1ccccc1)NC(=O)[C@H](CCC(=O)O)NC(=O)C(C)(C)NC(=O)[C@H](CCC(N)=O)NC(=O)[C@H](C)NC(=O)[C@H](CCCCNC(=O)COCCOCCNC(=O)COCCOCCNC(=O)CC[C@H](NC(=O)CCCCCCCCCCCCC(=O)O)C(=O)O)NC(=O)[C@H](CCCN)NC(=O)[C@H](CC(=O)O)NC(=O)[C@H](CC(C)C)NC(=O)[C@](C)(CC(C)C)NC(=O)[C@@H](NC(=O)[C@H](CN)NC(=O)[C@H](Cc1ccncc1)NC(=O)[C@H](CC(=O)O)NC(=O)[C@H](CO)NC(=O)[C@@H](NC(=O)[C@](C)(Cc1ccccc1F)NC(=O)[C@@H](NC(=O)CNC(=O)[C@H](CCC(=O)O)NC(=O)C(C)(C)NC(=O)[C@@H](N)Cc1ccc(O)cc1)[C@@H](C)O)[C@@H](C)O)[C@@H](C)CC)[C@@H](C)CC)C(=O)N[C@@H](CCC(=O)O)C(=O)NCC(=O)NCC(=O)N[C@@H](CCCCNC(=O)COCCOCCNC(=O)COCCOCCNC(=O)CC[C@H](NC(=O)CCCCCCCCCCCCC(=O)O)C(=O)O)C(=O)N[C@@H](CO)C(=O)N[C@@H](CO)C(=O)NCC(=O)N[C@@H](C)C(=O)N1CCC[C@H]1C(=O)N1CCC[C@H]1C(=O)N1CCC[C@H]1C(=O)N[C@@H](CO)C(N)=O` [Example 199], for which the EC50 at hGCGR (setting [1]) was more than 9950 nM; at hGCGR (setting [2]), more than 9950 nM; at hGIPR (setting [2]), 0.0587 nM. Also, the Emax on hGIPR (setting [3]) amounted to 77.1%; on hGIPR (setting [4]), 96.9 ± 1.48%; on hGLP-1R (setting [6]), 100%; on hGLP-1R (setting [5]), 96.7 ± 6.69%.

As to `CC[C@H](C)[C@H](NC(=O)[C@H](CCCN)NC(=O)[C@H](CC(=O)O)NC(=O)[C@H](CC(C)C)NC(=O)[C@](C)(CC(C)C)NC(=O)[C@@H](NC(=O)[C@H](CO)NC(=O)[C@H](CCc1ccc(O)cc1)NC(=O)[C@H](CC(=O)O)NC(=O)[C@H](CO)NC(=O)[C@@H](NC(=O)[C@](C)(Cc1ccccc1F)NC(=O)[C@@H](NC(=O)CNC(=O)[C@H](CCC(=O)O)NC(=O)C(C)(C)NC(=O)[C@@H](N)Cc1ccc(O)cc1)[C@@H](C)O)[C@@H](C)O)[C@@H](C)CC)C(=O)N[C@@H](C)C(=O)N[C@@H](CCC(N)=O)C(=O)NC(C)(C)C(=O)N[C@@H](CCC(=O)O)C(=O)N[C@@H](Cc1ccccc1)C(=O)N[C@H](C(=O)N[C@@H](CCCCNC(=O)COCCOCCNC(=O)COCCOCCNC(=O)CC[C@H](NC(=O)CCCCCCCCCCCCC(=O)O)C(=O)O)C(=O)N[C@@](C)(Cc1ccc(O)cc1)C(=O)N[C@@H](CC(C)C)C(=O)N[C@H](C(=O)N[C@@H](CCCCNC(=O)COCCOCCNC(=O)COCCOCCNC(=O)CC[C@H](NC(=O)CCCCCCCCCCCCC(=O)O)C(=O)O)C(=O)NCC(=O)NCC(=O)N1CCC[C@H]1C(=O)N[C@@H](CO)C(=O)N[C@@H](CO)C(=O)NCC(=O)N[C@@H](C)C(=O)N1CCC[C@H]1C(=O)N1CCC[C@H]1C(=O)N1CCC[C@H]1C(=O)N[C@@H](CO)C(N)=O)[C@@H](C)CC)[C@@H](C)CC` [Example 270], the EC50 is more than 9950 nM at hGCGR (setting [1]); more than 9950 nM on hGCGR (cAMP, 37° C., 0.1% bovine casein (no human serum albumin)); 32.6 nM at hGLP-1R (setting [1]). Also, the Emax amounted to 80.9% on hGIPR (setting [3]); 91.7% on hGIPR (HEK293, cAMP, 37° C., 0.1% bovine casein, percent of maximal response to GIP(1-42)NH2, arithmetic mean); 111% on hGLP-1R (setting [6]); 97% at hGLP-1R (HEK293, cAMP, 37° C., 0.1% bovine casein, percent of maximal response to GLP-1(7-36)NH2, arithmetic mean).

Usually EC50 stands for the concentration needed to bring the measured effect to its halfway point. As a reminder, the Emax is the greatest response seen or fitted, relative to the assay's reference.
